According to patent US20260217701A1, “SELECTIVE BET INHIBITORS AND USES THEREOF” (Tay Therapeutics Limited, priority 2022, published 2026):
Several values for one entry are separate records, joined by “and”; a condition that tells them apart may be missing. Equal values may be shown once.

Assay: Dog PK study #3 (Compound A PO once daily 5 days, 5/10/20 mg/kg; PK, body weight, hematology)
Format: in vivo, beagle dogs
Parameters: Plasma Concentration: unit not given here
Conditions: for Neutrophils: range 1.80-10.83; for White Blood Cells: range 4.81-15.67; for Platelets: range 127-393; for Accumulative Index of AUC0-last (Day 5/Day 1) / Accumulative Index of Cmax (Day 5/Day 1): PO
Procedure: For the third dog pharmacokinetic study, three solutions of different concentrations of Compound A were prepared in 5% DMSO/15% PEG-400/80% (10% VE-TPGS) as outlined in Table 2E. The Compound A solutions were administered to animals orally (PO) once daily over a five-day period. Body weight was recorded prior to dosing, and detailed clinical observations were made prior to dosing and throughout the study, as needed.
Animals were divided into Day 1 and Day 5 sample collection groups, with animals in the Day 1 collection group having blood samples taken prior to dosing and at 0.25, 0.5, 1, 2, 4, 8, and 24 hours after dosing on day 1. Animals in the Day 5 collection group having blood samples taken prior to dosing and at 0.25, 0.5, 1, 2, 4, 8, and 24 hours after dosing on day 5. Study groups are outlined in Table 3D.
Blood samples (~0.3 mL) were collected on day according to the following schedule (0.25, 0.5, 1, 2, 4, 8, and 24 h) after day 5 administration of Compound A by venipuncture of peripheral veins except for the dosing vein, and EDTA-K2 was used as anticoagulant. Within 30 minutes of collection, the samples were centrifuged at approximately 2000 times g-force for 10 minutes at 4° C. to obtain blood plasma. The plasma samples were immediately divided into two aliquots (~75 μL each), transferred to a cryogenic vial, and stored in a freezer at −75±15° C. prior to analysis.
The concentration of Compound A in the blood plasma was determined through LC-MS as previously described. Briefly, the experiments were conducted on a DMPK-LCMS-14-SMBA Triple Quad 6500 Plus instrument with an ACQUITY UPLC BEH C18 1.7 μm (50×2.1 mm) column. The matrix was male beagle dog plasma potassium (K2) EDTA A gradient of 95% water (0.1% formic acid and 2 mM HCOONH4)/95% acetonitrile (0.1% formic acid and 2 mM HCOONH4) was used as the mobile phase. The sample flow rate was 0.6 mL/min.
The samples were then vortex-mixed for 10 minutes at 800 rpm and centrifuged for 15 minutes at 3220×g at 4° C. 50 μL aliquots of supernatant were transferred to a clean 96-well plate and centrifuged for 5 minutes at 3220×g at 4° C. Samples were then injected into the LC/MS/MS system for quantitative analysis.
The gathered data were used for pharmacokinetic calculations using T1/2, CO, AUClast, AUCinf, MRTinf, Cl, Vss, and Number of Points for Regression as parameters.
The cell composition (hematology) of blood samples was analyzed at day 5. Analyses identified the total number of white blood cells, neutrophils, lymphocytes, monocytes, eosinophils, basophils, and platelets in collected samples.

[1] = Day 5, 10 mg/kg dose PO, individual animals
[2] = Day 5, 20 mg/kg dose PO, individual animals
[3] = Day 5, Group 1, individual animals
[4] = Day 5, Group 2, individual animals
[5] = Day 5, Group 3, individual animals

SMILES: Cn1cc(-c2ccccc2)c(-c2cn(C)c(=O)c3[nH]c(-c4cnn(C(F)(F)F)c4)cc23)cc1=O [Compound A, 6-methyl-4-(1-methyl-2-oxo-5-phenyl-1,2-dihydropyridin-4-yl)-2-(1-(trifluoromethyl)-1H-pyrazol-4-yl)-1,6-dihydro-7H-pyrrolo[2,3-c]pyridin-7-one]
- Neutrophils (Day 5, 5 mg/kg/day (mean)): 7.08 10^3/μL
- White Blood Cells (Day 5, 5 mg/kg/day (mean)): 10.59 103/μL
- Platelets (Day 5, 5 mg/kg/day (mean)): 224.0 10^3/μL
- Plasma Concentration (Day 5, 10 mg/kg dose PO, time 1, individual animals): 1610 and 2220
- Plasma Concentration (Day 5, 10 mg/kg dose PO, time 1, mean): 1915
- Plasma Concentration (Day 5, 10 mg/kg dose PO, time 2, individual animals): 1740 and 2780
- Plasma Concentration (Day 5, 10 mg/kg dose PO, time 2, mean): 2260
- Plasma Concentration (Day 5, 10 mg/kg dose PO, time 4, individual animals): 1460 and 2310
- Plasma Concentration (Day 5, 10 mg/kg dose PO, time 4, mean): 1885
- Plasma Concentration (Day 5, 10 mg/kg dose PO, time 8, individual animals): 1190 and 1940
- Plasma Concentration (Day 5, 10 mg/kg dose PO, time 8, mean): 1565
- AUC0-last [1]: 36.083 µg·h/mL
- AUC(0-inf) [1]: 45.289 µg·h/mL
- AUCExtra [1]: 10.6% and 20.3%
- AUMCExtra [1]: 32.6% and 51.3%
- Cl_F [1]: 7.25 mL/min/kg and 3.68 mL/min/kg
- Cmax [1]: 2780 ng/mL
- MRT0-inf [1]: 15.4 h
- MRT0-last [1]: 9.39 h
- Tlast [1]: 24.0 h
- T½ [1]: 10.3 h
- Vz_F [1]: 4.58 L/kg and 3.27 L/kg
- AUC0-last (Day 5, 10 mg/kg dose PO, mean): 28.307 µg·h/mL
- AUCExtra (Day 5, 10 mg/kg dose PO, mean): 15.5%
- AUMCExtra (Day 5, 10 mg/kg dose PO, mean): 42.0%
- Cl_F (Day 5, 10 mg/kg dose PO, mean): 5.47 mL/min/kg
- Tlast (Day 5, 10 mg/kg dose PO, mean): 24.0 h
- Vz_F (Day 5, 10 mg/kg dose PO, mean): 3.92 L/kg
- Basophils (Day 5, 10 mg/kg/day (mean), range 0.00-0.19): 0.07 10^3/μL
- Eosinophils (Day 5, 10 mg/kg/day (mean), range 0.00-1.24): 0.40 10^3/μL
- Monocytes (Day 5, 10 mg/kg/day (mean), range 0.11-1.08): 0.48 10^3/μL
- Lymphocytes (Day 5, 10 mg/kg/day (mean), range 1.42-3.76): 3.31 10^3/μL
- Neutrophils (Day 5, 10 mg/kg/day (mean)): 6.59 10^3/μL
- White Blood Cells (Day 5, 10 mg/kg/day (mean)): 10.86 103/μL
- Platelets (Day 5, 10 mg/kg/day (mean)): 273.0 10^3/μL
- Plasma Concentration (Day 5, 20 mg/kg dose PO, time 1, individual animals): 3150 and 2130
- Plasma Concentration (Day 5, 20 mg/kg dose PO, time 1, mean): 2640
- Plasma Concentration (Day 5, 20 mg/kg dose PO, time 2, individual animals): 3510 and 2220
- Plasma Concentration (Day 5, 20 mg/kg dose PO, time 2, mean): 2865
- Plasma Concentration (Day 5, 20 mg/kg dose PO, time 4, individual animals): 3160 and 2040
- Plasma Concentration (Day 5, 20 mg/kg dose PO, time 4, mean): 2600
- Plasma Concentration (Day 5, 20 mg/kg dose PO, time 8, individual animals): 2430 and 2170
- Plasma Concentration (Day 5, 20 mg/kg dose PO, time 8, mean): 2300
- AUC0-last [2]: 43.537 µg·h/mL and 16.801 µg·h/mL
- AUC(0-inf) [2]: 49.399 µg·h/mL and 2087.5 µg·h/mL
- AUCExtra [2]: 11.9% and 99.2%
- AUMCExtra [2]: 35.5% and 100%
- Cl_F [2]: 6.75 mL/min/kg and 0.160 mL/min/kg
- Cmax [2]: 2220 ng/mL
- MRT0-inf [2]: 11.7 h and 955 h
- MRT0-last [2]: 8.57 h and 4.03 h
- Tlast [2]: 24.0 h and 8.00 h
- T½ [2]: 7.64 h
- Vz_F [2]: 4.46 L/kg and 9.29 L/kg
- AUC0-last (Day 5, 20 mg/kg dose PO, mean): 30.169 µg·h/mL
- AUCExtra (Day 5, 20 mg/kg dose PO, mean): 55.6%
- AUMCExtra (Day 5, 20 mg/kg dose PO, mean): 67.8%
- Cl_F (Day 5, 20 mg/kg dose PO, mean): 3.45 mL/min/kg
- Vz_F (Day 5, 20 mg/kg dose PO, mean): 6.87 L/kg
- Animal body weight [3]: 8.22 kg and 9.18 kg
- Clinical Observation [3]: None
- Animal Body Weight, Mean (Day 5, Group 1, mean): 8.70 kg
- Animal body weight [4]: 9.31 kg and 8.43 kg
- Clinical Observation [4]: None
- Animal Body Weight, Mean (Day 5, Group 2, mean): 8.87 kg
- Animal body weight [5]: 8.88 kg and 8.11 kg
- Clinical Observation [5]: None
- Animal Body Weight, Mean (Day 5, Group 3, mean): 8.50 kg
- Accumulative Index of AUC0-last (Day 5/Day 1) (dose level 5.00 mg/kg): 1.53
- Accumulative Index of Cmax (Day 5/Day 1) (dose level 5.00 mg/kg): 1.57
- Accumulative Index of AUC0-last (Day 5/Day 1) (dose level 10.0 mg/kg): 1.62
- Accumulative Index of Cmax (Day 5/Day 1) (dose level 10.0 mg/kg): 1.31
- Accumulative Index of AUC0-last (Day 5/Day 1) (dose level 20.0 mg/kg): 0.445
- Accumulative Index of Cmax (Day 5/Day 1) (dose level 20.0 mg/kg): 0.555
- time plasma concentration remained above the free EC50 BD2 (all doses administered): 24 h
- white blood cell fraction parameters (day 5): within range
- AUC(0-t) (male, beagle, dog, plasma, po, 5 mg/kg, Day 1, 5 mg/kg dose PO, individual animals): 11.6 µg·h/mL
